Reference: paper PMC11597085 (Molecules, 2024)
Where two headings read alike, the source gives them in different places.

Experiments:
[1] = Chemical stability in water (10 mM) at 60 °C by HPLC; format: physicochemical; settings: for Chemical stability, Initial (%): HPLC AUC, 0 h set to 100%; for Chemical stability, 24 h / Chemical stability, 48 h / Chemical stability, 76 h / Chemical stability, 164 h / Chemical stability, 330 h: storage at 60 °C, HPLC
Procedure: For this purpose, high-performance liquid chromatography (HPLC) was employed to measure any changes in these species upon storage at 60 °C (Table 1).

BACE-1 = target: T1, BACE-1 (Homo sapiens, UniProt P56817); assay: BACE-1 FRET inhibition assay; format: biochemical
T1 construct: purchased PanVera Corp. / Thermo Fisher Scientific P2985
T1 sequence (P56817 46-501): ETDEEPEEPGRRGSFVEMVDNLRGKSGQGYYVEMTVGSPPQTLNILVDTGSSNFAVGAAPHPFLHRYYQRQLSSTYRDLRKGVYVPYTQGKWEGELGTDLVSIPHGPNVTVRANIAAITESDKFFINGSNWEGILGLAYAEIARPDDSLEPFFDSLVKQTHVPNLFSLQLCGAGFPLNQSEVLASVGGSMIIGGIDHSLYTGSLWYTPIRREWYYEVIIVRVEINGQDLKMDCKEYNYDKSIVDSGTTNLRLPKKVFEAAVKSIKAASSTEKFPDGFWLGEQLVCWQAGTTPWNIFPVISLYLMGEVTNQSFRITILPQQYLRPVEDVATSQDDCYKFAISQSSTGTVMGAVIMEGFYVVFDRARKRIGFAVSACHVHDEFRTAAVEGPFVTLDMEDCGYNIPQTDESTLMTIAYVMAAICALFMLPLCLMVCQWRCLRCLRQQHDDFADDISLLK
Procedure: A BACE-1 inhibition assay was performed using a β-Secretase FRET kit (BACE-1, Thermo Fisher Scientific, San Diego, CA, USA) following the manufacturer’s instructions. […] In black 96-well microplates, 10 µL of the BACE-1 substrate was added to the diluted samples. The reaction was initiated by adding 10 µL of 3× BACE-1 enzyme to each well. The plates were incubated for 60 min at RT in the dark. After incubation, the reaction was stopped by adding 10 µL of 2.5 mM sodium acetate to each well. […] The IC50 value was determined by plotting the relative fluorescence units per hour (RFU/h) against the logarithmic inhibitor concentrations. All experiments were conducted in triplicate.

[2] = test system: phosphorylated tau (P-tau); assay: P-tau level ELISA in SH-SY5Y cells; settings: Homo sapiens, 24 h, read-out: P-tau inhibition
Procedure: SH-SY5Y cells were grown in a complete growth medium comprising Dulbecco’s Modified Eagle Medium (DMEM) supplemented with 10% fetal bovine serum (FBS) and 1% penicillin/streptomycin. For treatment, adherent SH-SY5Y cells were plated in 96-well plates at a density of 2 × 10^6 cells per well. Levosimendan (Sigma, St. Louis, MO, USA) was used as an inhibitor to verify the effect on tau inhibition. Upon treatment with 20 μM of each substance, the cells were cultured for 24 h. The supernatant was then collected and used in subsequent ELISA assays.
The tau levels were assessed using a Human Tau ELISA kit (Abcam, Cambridge, UK). After treatment, the supernatant was diluted five times. The diluted supernatant, capture antibody, and detection antibody were mixed in a 2:1:1 ratio and incubated for 1 h. The wells were then washed three times with a wash buffer. After removing the buffer, 100 µL of 3,3′,5,5′-tetramethylbenzidine developer was added and incubated for 10 min, followed by the addition of 100 µL stop solution. The optical density was measured at 450 nm. Data analysis was performed by calculating the mean and standard deviation using GraphPad Prism 8 (GraphPad, San Diego, CA, USA).

[3] = DPPH radical scavenging assay; format: biochemical; settings: methanol, 30 min, RT, dark
Procedure: The mixture was then kept in the dark at RT for 30 min. Afterward, the absorbance was measured at 540 nm.

[4] = target: T2, acetylcholinesterase (AChE) (Electrophorus electricus, UniProt O42275); assay: biochemical
T2 construct: purchased Sigma-Aldrich C3389
T2 sequence (O42275 24-633): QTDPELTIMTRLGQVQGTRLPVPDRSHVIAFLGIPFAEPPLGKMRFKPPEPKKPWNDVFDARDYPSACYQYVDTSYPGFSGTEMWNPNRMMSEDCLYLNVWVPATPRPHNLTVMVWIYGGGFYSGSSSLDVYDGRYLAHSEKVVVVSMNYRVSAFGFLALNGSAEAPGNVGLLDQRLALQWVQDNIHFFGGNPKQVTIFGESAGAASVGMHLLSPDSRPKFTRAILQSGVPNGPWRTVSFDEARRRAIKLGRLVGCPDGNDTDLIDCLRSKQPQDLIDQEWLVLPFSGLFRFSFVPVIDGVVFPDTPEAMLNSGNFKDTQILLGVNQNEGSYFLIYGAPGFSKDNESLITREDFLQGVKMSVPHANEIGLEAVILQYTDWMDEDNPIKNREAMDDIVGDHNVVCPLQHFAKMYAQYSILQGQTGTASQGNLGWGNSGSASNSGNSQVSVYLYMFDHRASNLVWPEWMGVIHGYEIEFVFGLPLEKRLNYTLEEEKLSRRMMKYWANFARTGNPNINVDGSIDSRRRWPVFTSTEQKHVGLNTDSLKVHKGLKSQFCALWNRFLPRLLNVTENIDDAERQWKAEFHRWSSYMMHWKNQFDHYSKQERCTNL

NLRP3 = NLRP3 ELISA in LPS-induced RAW264.7 cells; format: cell-based, murine; settings: 25 µM (method: 20 µM), LPS 0.5 µg/mL, 24 h
Source text: The induced cytokines further contribute to AD pathology by hyperphosphorylation of the tau protein [19]. Additionally, the activation of NLRP3 has been implicated in the pathogenesis of AD [20, 21], and this inflammatory response fosters the generation of Aβ and tau, ultimately contributing to disease progression. Thus, to determine the anti-inflammatory activities of the prepared derivatives, we measured the inhibition of nitrogen oxide (NO) and NLRP3 in LPS-induced RAW264.7 cells. The active concentration for activity assessment was established as 25 µM, at which cell viability had been previously confirmed.
RAW 264.7 macrophages were seeded at a density of 5 × 10^5 cells/well in 96-well plates and treated with 20 µM of RA-Hyd-Me, RA-Hyd-Me-tol, RA-Benzo, and RA-Sali for 1 h and then stimulated with 0.5 μg/mL LPS for 24 h. Culture supernatant levels of NOD-like receptor pyrine domain containing-3 (NLRP3) were determined using a commercially available ELISA kit (Lsbio, Seattle, WA, USA) and following the instructions of the manufacturer. The absorbance of the plate was read at a wavelength of 450 nm. NLRP3 was determined from a standard curve. The concentrations were expressed as ng/mL. To obtain statistical significance, all experiments were carried out in duplicate.

[5] = Stability of Ramalin in water vs deoxygenated water (10 mM, 48 h, 25 °C); format: physicochemical
Source text: This is evidenced by the increased stability when dissolved in deoxygenated water compared to water containing dissolved oxygen. […] We attempted modifications by introducing a methyl group into phenyl hydrazine to prevent conversion into the azo form or by linking the phenyl group to a benzophenone structure to block electron flow and mitigate oxidation, thereby enhancing stability.

[6] = FRET kit, 60 min, RT, triplicate, read-out: BACE-1 IC50

Row | Structure (SMILES) | Chemical stability, Initial (%) [1] | Chemical stability, 24 h [1] | Chemical stability, 48 h [1] [%] | Chemical stability, 76 h [1] [%] | Chemical stability, 164 h [1] [%] | Chemical stability, 330 h [1] [%] | IC50 (BACE-1; [6]) [µM] | inhibition at 20 µM [2] [%] | IC50 (BACE-1) [µM] | IC50 [3] [µM] | inhibition at 50 µM [4] [%] | NLRP3 inhibitory activity (NLRP3) | Ramalin remained in deoxygenated water ([5]; deoxygenated water) [%] | Ramalin remained in regular water ([5]; regular water)
1 | Cl.N[C@@H](CCC(=O)NNC(=O)c1ccccc1)C(=O)O [RA-Benzo, N^5-benzamido-L-glutamine hydrochloride] | 100% | 97.2% | 94.4 | 91.5 | 82.5 | 68.0 | 144 ± 87.1 | 10 to 15 | – | – | – | – | – | –
2 | CN(NC(=O)CC[C@H](N)C(=O)O)c1ccccc1 [RA-Hyd-Me, N^5-(methyl(phenyl)amino)-L-glutamine] | 100% | 97.5% | 94.5 | 91.1 | 80.3 | 65.4 | – | 10 to 15 | 15.5 ± 5.8 | 14.4 | – | – | – | –
3 | Cc1cccc(N(C)NC(=O)CC[C@H](N)C(=O)O)c1 [RA-Hyd-Me-Tol, N^5-(methyl(m-tolyl)amino)-L-glutamine] | 100% | 97.5% | 94.6 | 91.0 | 80.0 | 63.4 | 22.5 ± 1.76 | 10 to 15 | – | 12.4 | – | – | – | –
4 | Cl.N[C@@H](CCC(=O)NNC(=O)c1ccccc1O)C(=O)O [RA-Sali, N^5-(2-hydroxybenzamido)-L-glutamine hydrochloride] | 100% | 99.6% | 96.7 | 93.3 | 82.6 | 69.1 | 8.44 ± 5.16 | ~40 | – | – | 7.8 | ~ 25% | – | –
5 | N[C@@H](CCC(=O)NNc1ccccc1O)C(=O)O [Ramalin, reference compound] | 100% ^1 | 35.1% ^2 | 17.1 | 7.6 | – | – | – | – | – | – | – | – | 92 | about 53%
